Assay results taken from patent US6987114B1, “Antiviral pyrimidinedione derivatives and process for the preparation thereof” (Samjin Pharmaceutical Co., Ltd, priority 1999, dated 2006).
Converted amounts (≈) assume the structure as drawn. Like-named read-outs stand apart in the source and are kept apart here.

What was measured:
HIV = experiment: microbe, parasite or virus in culture; assay type: cell-based
Outline: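 MT-4 cells (2.5×10^5 cells/ml) infected with 1000 CCID50 HIV, added at once to compound dilutions, incubated 4 or 5 days at 37° C. Protection from virus-induced cytopathic effect read by MTT; cytotoxicity from MTT viability of mock-infected cells in parallel.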

mock-infected MT-4 cells = experiment: Cytotoxicity based on viability of mock-infected host cells (MTT method); assay type: cell-based; conditions: mock-infected MT-4 cells, MTT method, 4 or 5 days at 37° C.
Outline: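 Mock-infected MT-4 cells at 2.5×10^5 cells/ml were exposed to various concentrations of test compound, run in parallel with HIV-infected (1000 CCID50) cultures. After 4 or 5 days at 37° C., host-cell viability was read by MTT.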

[1] = Human immunodeficiency virus 1, MT4, read-out: ED50
[2] = Human immunodeficiency virus 1, MT4, HIV-infected MT-4 cells, MTT method, 4 or 5 days at 37° C., read-out: ED50 (the source's name)

SMILES | EC50 (HIV; [1]) | CD50 (mock-infected MT-4 cells) | melting point | EC50 (HIV; [2])
CCc1c(Oc2cc(C)cc(C)c2)n(Cc2nc3ccccc3o2)c(=O)[nH]c1=O [Example 147, 1-(Benzoxazol-2-ylmethyl)-5-ethyl-6-(3,5-dimethylphenoxy)-2,4-pyrimidinedione] | 0.061 µg/mL (≈ 0.156 µM) | 40.20 µg/mL | 121 to 123 °C | –
Cc1cc(C)cc(Oc2c(C(C)C)c(=O)[nH]c(=O)n2Cc2nc3ccccc3o2)c1 [Example 148, 1-(Benzoxazol-2-ylmethyl)-5-isopropyl-6-(3,5-dimethylphenoxy)-2,4-pyrimidinedione] | 0.01 µg/mL (≈ 0.0247 µM) | 9.00 µg/mL | 200 to 202 °C | –
CCc1c(C(=O)c2cc(C)cc(C)c2)n(Cc2nc3ccccc3o2)c(=O)[nH]c1=O [Example 149, 1-(Benzoxazol-2-ylmethyl)-5-ethyl-6-(3,5-dimethyl-benzoyl)-2,4-pyrimidinedione] | 0.029 µg/mL (≈ 0.0719 µM) | 6.78 µg/mL | 218 to 220 °C | –
COC(=O)c1ccoc1Cn1c(Sc2cc(C)cc(C)c2)c(C(C)C)c(=O)[nH]c1=O [Example 152, 1-(3-Methoxycarbonyl-2-furanylmethyl)-5-isopropyl-6-(3,5-dimethylphenyl)thio-2,4-pyrimidinedione] | – | 9.61 µg/mL | 135 to 137 °C | 0.018 µg/mL (≈ 0.042 µM)
CCc1c(Oc2cc(C)cc(C)c2)n(Cc2occc2C(=O)OC)c(=O)[nH]c1=O [Example 153, 1-(3-Methoxycarbonyl-2-furanylmethyl)-5-ethyl-6-(3,5-dimethylphenoxy)-2,4-pyrimidinedione] | – | 12.22 µg/mL | 150 to 152 °C | 0.278 µg/mL (≈ 0.698 µM)
COC(=O)c1ccoc1Cn1c(Oc2cc(C)cc(C)c2)c(C(C)C)c(=O)[nH]c1=O [Example 154, 1-(3-Methoxycarbonyl-2-furanylmethyl)-5-isopropyl-6-(3,5-dimethylphenoxy)-2,4-pyrimidinedione] | – | 10.11 µg/mL | 157 to 159 °C | 0.074 µg/mL (≈ 0.179 µM)
CCc1c(C(=O)c2cc(C)cc(C)c2)n(Cc2occc2C(=O)OC)c(=O)[nH]c1=O [Example 155, 1-(3-Methoxycarbonyl-2-furanylmethyl)-5-ethyl-6-(3,5-dimethyl-benzoyl)-2,4-pyrimidinedione] | – | 13.45 µg/mL | 204 to 206 °C | 0.017 µg/mL (≈ 0.0414 µM)
COC(=O)c1ccoc1Cn1c(C(=O)c2cc(C)cc(C)c2)c(C(C)C)c(=O)[nH]c1=O [Example 156, 1-(3-Methoxycarbonyl-2-furanylmethyl)-5-isopropyl-6-(3,5-dimethyl-benzoyl)-2,4-pyrimidinedione] | – | 10.92 µg/mL | 180 to 183 °C | 0.014 µg/mL (≈ 0.033 µM)
CCc1c(Oc2cc(C)cc(C)c2)n(CC(C)=O)c(=O)[nH]c1=O [Example 157, 1-(Acetonyl)-5-ethyl-6-(3,5-dimethylphenoxy)-2,4-pyrimidinedione] | 0.0119 µg/mL (≈ 0.0376 µM) | 3.6 µg/mL | 162 to 165 °C | –
CC(=O)Cn1c(Oc2cc(C)cc(C)c2)c(C(C)C)c(=O)[nH]c1=O [Example 158, 1-(Acetonyl)-5-isopropyl-6-(3,5-dimethylphenoxy)-2,4-pyrimidinedione] | 0.0043 µg/mL (≈ 0.013 µM) | >100.00 µg/mL | 181 to 183 °C | –
CCc1c(C(=O)c2cc(C)cc(C)c2)n(CC(C)=O)c(=O)[nH]c1=O [Example 159, 1-(Acetonyl)-5-ethyl-6-(3,5-dimethylbenzoyl)-2,4-pyrimidinedione] | 0.0018 µg/mL (≈ 0.00548 µM) | 11.8 µg/mL | 186 to 189 °C | –
CC(=O)Cn1c(C(=O)c2cc(C)cc(C)c2)c(C(C)C)c(=O)[nH]c1=O [Example 160, 1-(Acetonyl)-5-isopropyl-6-(3,5-dimethylbenzoyl)-2,4-pyrimidinedione] | 0.0005 µg/mL (≈ 0.00146 µM) | 14.0 µg/mL | 181 to 183 °C | –
CCC(=O)Cn1c(Oc2cc(C)cc(C)c2)c(CC)c(=O)[nH]c1=O [Example 161, 1-(2-Butanon-1-yl)-5-ethyl-6-(3,5-dimethylphenoxy)-2,4-pyrimidinedione] | 0.018 µg/mL (≈ 0.0545 µM) | 48.0 µg/mL | 116 to 118 °C | –
CCC(=O)Cn1c(Oc2cc(C)cc(C)c2)c(C(C)C)c(=O)[nH]c1=O [Example 162, 1-(2-Butanon-1-yl)-5-isopropyl-6-(3,5-dimethylphenoxy)-2,4-pyrimidinedione] | 0.0159 µg/mL (≈ 0.0462 µM) | 41.40 µg/mL | 135 to 138 °C | –
CCC(=O)Cn1c(C(=O)c2cc(C)cc(C)c2)c(C(C)C)c(=O)[nH]c1=O [Example 164, 1-(2-Butanon-1-yl)-5-isopropyl-6-(3,5-dimethylbenzoyl)-2,4-pyrimidinedione] | 0.0026 µg/mL (≈ 0.00729 µM) | 20.58 µg/mL | 174 to 176 °C | –
